From ChEMBL document CHEMBL1201862, “PubChem BioAssay data set” (2004)
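Briefly, cells in 96-well plates were exposed to five compound concentrations for 48 h, and endpoints were estimated by linear interpolation. GI50 = concentration required for 50% inhibition of growth.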 Active and inactive are the calls of the source. No stated cut-off is given here; in the data, active = GI50 up to about 1.1 µM and inactive = higher.

Tests used:
Assay in all cases: growth of human tumour cells (NCI), 48 h
786-0 = system: 786-0
A549 = system: A549
ACHN = system: ACHN
BT-549 = system: BT-549
DU-145 = system: DU-145
EKVX = system: EKVX
HCT-116 = system: HCT-116
K562 = system: K562
LOX IMVI = system: LOX IMVI
Malme-3M = system: Malme-3M
NCI-H226 = system: NCI-H226
NCI/ADR-RES = system: NCI/ADR-RES
RPMI-8226 = system: RPMI-8226
SF-268 = system: SF-268
SK-OV-3 = system: SK-OV-3
SNB-19 = system: SNB-19
SNB-75 = system: SNB-75
SW-620 = system: SW-620
MDA-MB-231 = system: MDA-MB-231
SK-MEL-2 = system: SK-MEL-2

Measured: GI50

C(=C\c1ccco1)/c1cccc(/C=C/c2ccco2)n1
inactive: 786-0 > 50 µM | A549 > 50 µM | ACHN > 50 µM | BT-549 > 50 µM | DU-145 > 50 µM | EKVX > 50 µM | HCT-116 > 50 µM | K562 > 50 µM | LOX IMVI > 50 µM | Malme-3M > 50 µM | NCI-H226 > 50 µM | NCI/ADR-RES > 50 µM | RPMI-8226 > 50 µM | SF-268 > 50 µM | SK-OV-3 > 50 µM | SNB-19 > 50 µM | SNB-75 13.2 µM | SW-620 > 50 µM

O=C1CC2(CCCc3sccc32)C(=O)N1 (stereo unspecified)
inactive: 786-0 > 100 µM | A549 > 100 µM | ACHN > 100 µM | DU-145 > 100 µM | EKVX > 100 µM | HCT-116 > 100 µM | K562 > 100 µM | LOX IMVI > 100 µM | MDA-MB-231 > 100 µM | Malme-3M > 100 µM | NCI-H226 > 100 µM | NCI/ADR-RES > 100 µM | RPMI-8226 > 100 µM | SF-268 > 100 µM | SK-MEL-2 > 100 µM | SK-OV-3 > 100 µM | SNB-19 > 100 µM | SNB-75 > 100 µM | SW-620 > 100 µM

O=C(Nc1ccccc1)OC1OC(COC(=O)c2ccccc2)C(OC(=O)c2ccccc2)C1OS(=O)(=O)c1ccc([N+](=O)[O-])cc1 (stereo unspecified)
inactive: 786-0 > 100 µM | A549 > 100 µM | ACHN > 100 µM | BT-549 > 100 µM | DU-145 > 100 µM | EKVX 63.8 µM | HCT-116 > 100 µM | K562 > 100 µM | LOX IMVI > 100 µM | Malme-3M > 100 µM | NCI-H226 > 100 µM | NCI/ADR-RES > 100 µM | RPMI-8226 > 100 µM | SF-268 > 100 µM | SK-MEL-2 > 100 µM | SK-OV-3 > 100 µM | SNB-19 > 100 µM | SW-620 > 100 µM

Cc1ccc(S(=O)(=O)n2c3c(c4ccccc42)CCN2C[C@H]([C@H](C)Br)CC[C@@H]32)cc1
inactive: 786-0 > 100 µM | A549 > 100 µM | ACHN > 100 µM | DU-145 > 100 µM | EKVX > 100 µM | K562 25.7 µM | LOX IMVI > 100 µM | MDA-MB-231 > 100 µM | Malme-3M > 100 µM | NCI-H226 > 100 µM | NCI/ADR-RES > 100 µM | RPMI-8226 13.1 µM | SF-268 > 100 µM | SK-MEL-2 > 100 µM | SK-OV-3 > 100 µM | SNB-19 > 100 µM | SNB-75 > 100 µM | SW-620 > 100 µM

O=C1C=C(Nc2ccc(S(=O)(=O)Nc3nccs3)cc2)c2ccccc2C1=O
inactive: 786-0 36.6 µM | A549 > 100 µM | ACHN 21 µM | BT-549 20.7 µM | EKVX 26.4 µM | HCT-116 34.5 µM | K562 12.1 µM | LOX IMVI 19.8 µM | MDA-MB-231 26.5 µM | Malme-3M 21 µM | NCI-H226 21.9 µM | NCI/ADR-RES 27.5 µM | RPMI-8226 37.3 µM | SF-268 27.1 µM | SK-MEL-2 28.6 µM | SK-OV-3 > 100 µM | SNB-19 29.4 µM | SNB-75 21.5 µM | SW-620 19.4 µM

O=C(Nc1ccccc1F)c1cc2ccc(O)cc2o/c1=N\c1ccccc1F
inactive: 786-0 1.79 µM | A549 2.31 µM | ACHN 2.23 µM | BT-549 2.83 µM | DU-145 1.95 µM | EKVX 2.75 µM | HCT-116 2.06 µM | K562 2.15 µM | LOX IMVI 2.57 µM | Malme-3M 1.73 µM | NCI/ADR-RES 2.42 µM | RPMI-8226 2.04 µM | SF-268 2.27 µM | SK-MEL-2 1.84 µM | SK-OV-3 25.4 µM | SNB-19 4.25 µM | SW-620 2.88 µM

COc1cccc(C=C(C#N)C#N)c1OC
inactive: 786-0 > 100 µM | A549 > 100 µM | ACHN > 100 µM | BT-549 > 100 µM | DU-145 > 100 µM | EKVX > 100 µM | HCT-116 > 100 µM | K562 > 100 µM | Malme-3M > 100 µM | NCI-H226 > 100 µM | NCI/ADR-RES > 100 µM | RPMI-8226 43.5 µM | SF-268 > 100 µM | SK-OV-3 12.3 µM | SNB-19 > 100 µM | SNB-75 43.2 µM | SW-620 > 100 µM

CC(=O)Oc1ccc2c(c1)oc1c3ccc(OC(C)=O)cc3n(C)c(=O)c21
inactive: 786-0 1.15 µM | A549 35.1 µM | ACHN 37.4 µM | BT-549 93.1 µM | DU-145 24 µM | EKVX 13.2 µM | HCT-116 20.9 µM | K562 30.5 µM | MDA-MB-231 27 µM | Malme-3M 6.47 µM | NCI-H226 10.2 µM | NCI/ADR-RES 15.7 µM | SF-268 12.5 µM | SK-OV-3 14.8 µM | SNB-19 > 100 µM | SNB-75 1.14 µM | SW-620 26.4 µM

Cn1c(COC(=O)NC2CCCCC2)c(COC(=O)NC2CCCCC2)c2ccc3ccccc3c21
inactive: 786-0 13.3 µM | A549 83.8 µM | ACHN 17.2 µM | BT-549 55.3 µM | EKVX 47.2 µM | HCT-116 33 µM | K562 51.2 µM | LOX IMVI 23.3 µM | MDA-MB-231 69.5 µM | Malme-3M 36.4 µM | NCI-H226 23.7 µM | NCI/ADR-RES 23.1 µM | RPMI-8226 49.2 µM | SF-268 22.4 µM | SK-MEL-2 31.6 µM | SK-OV-3 > 100 µM | SNB-19 55.7 µM | SNB-75 26.1 µM | SW-620 32.4 µM

N#CCCCCC12C3C(=O)N(c4ccccc4)C(=O)C3ON1O[C@@H]1C(=O)N(c3ccccc3)C(=O)[C@@H]12 (stereo partly specified)
inactive: 786-0 > 100 µM | A549 > 100 µM | ACHN > 100 µM | BT-549 > 100 µM | DU-145 > 100 µM | EKVX > 100 µM | K562 > 100 µM | LOX IMVI > 100 µM | MDA-MB-231 > 100 µM | Malme-3M > 100 µM | NCI-H226 > 100 µM | NCI/ADR-RES > 100 µM | SF-268 > 100 µM | SK-OV-3 > 100 µM | SNB-19 > 100 µM | SW-620 > 100 µM

CC1C[C@]2(C)C(=O)N(c3ccccc3)C(=N)[C@@H]2N(C)c2ccccc21 (stereo partly specified)
inactive: 786-0 > 100 µM | A549 > 100 µM | ACHN > 100 µM | DU-145 > 100 µM | EKVX > 100 µM | HCT-116 > 100 µM | K562 > 100 µM | LOX IMVI > 100 µM | MDA-MB-231 > 100 µM | Malme-3M > 100 µM | NCI-H226 > 100 µM | NCI/ADR-RES > 100 µM | RPMI-8226 > 100 µM | SF-268 > 100 µM | SK-MEL-2 > 100 µM | SNB-19 > 100 µM | SNB-75 79.3 µM | SW-620 > 100 µM
